Values after ≈ are worked out from the molar mass of the structure shown. Active and inactive are the calls of the source. The calls are words filed in the database; no cut-off is given here.
Experiments:
Klebsiella pneumoniae = assay: Antibacterial activity against Klebsiella pneumoniae ATCC 700603 assessed as bacterial growth inhibition incubated for 18 hrs by broth microdilution method; type: functional
Pseudomonas aeruginosa = assay: Antibacterial activity against Pseudomonas aeruginosa ATCC 27853 assessed as bacterial growth inhibition incubated for 18 hrs by broth microdilution method; type: functional
Staphylococcus aureus [1] = assay: Antibacterial activity against Staphylococcus aureus ATCC 25923 assessed as bacterial growth inhibition incubated for 18 hrs by broth microdilution method; type: functional
Enterococcus faecalis = assay: Antibacterial activity against Enterococcus faecalis ATCC 29212 assessed as bacterial growth inhibition incubated for 18 hrs by broth microdilution method; type: functional
Escherichia coli [2] = assay: Antibacterial activity against Escherichia coli ATCC 25922 assessed as fold increase in MIC in presence of NaCl; type: functional
Escherichia coli [3] = assay: Antibacterial activity against Escherichia coli ATCC 25922 assessed as fold increase in MIC in presence of MgCl2; type: functional
Escherichia coli [4] = assay: Antibacterial activity against Escherichia coli ATCC 25922 assessed as fold increase in MIC in presence of ZnCl2; type: functional
Escherichia coli [5] = assay: Antibacterial activity against Escherichia coli ATCC 25922 assessed as fold increase in MIC in presence of FeCl3; type: functional
Staphylococcus aureus [6] = assay: Antibacterial activity against Staphylococcus aureus ATCC 25923 assessed as fold increase in MIC in presence of KCl; type: functional
Staphylococcus aureus [7] = assay: Antibacterial activity against Staphylococcus aureus ATCC 25923 assessed as fold increase in MIC in presence of ZnCl2; type: functional
Staphylococcus aureus [8] = assay: Antibacterial activity against Staphylococcus aureus ATCC 25923 assessed as fold increase in MIC in presence of FeCl3; type: functional
Escherichia coli [9] = assay: Antibacterial activity against Escherichia coli ATCC 25922 in presence of 10% mouse serum measured for 6 hrs; type: functional, organism-based
Staphylococcus aureus [10] = assay: Antibacterial activity against Staphylococcus aureus ATCC 25923 in presence of 10% mouse serum measured for 6 hrs; type: functional, organism-based
Escherichia coli [11] = assay: Antimicrobial activity against Escherichia coli ATCC 25922 assessed as reduction in survival bacterial growth in presence of chymotrypsin measured after 6 hrs; type: functional, organism-based
Escherichia coli [12] = assay: Inhibition of biofilm formation in Escherichia coli ATCC 25922 assessed as inhibition of biofilm formation at 1/4 times MIC incubated for 24 hrs by crystal violet staining based analysis; type: functional, organism-based
Escherichia coli [13] = assay: Inhibition of biofilm formation in Escherichia coli ATCC 25922 assessed as inhibition of biofilm formation at 1/2 times MIC incubated for 24 hrs by crystal violet staining based analysis; type: functional, organism-based
Escherichia coli [14] = assay: Inhibition of biofilm formation in Escherichia coli ATCC 25922 assessed as inhibition of biofilm formation at 1 to 2 times MIC incubated for 24 hrs by crystal violet staining based analysis; type: functional, organism-based
Staphylococcus aureus [15] = assay: Inhibition of biofilm formation in Staphylococcus aureus ATCC 25923 assessed as inhibition of biofilm formation at 1/2 times MIC incubated for 24 hrs by crystal violet staining based analysis; type: functional, organism-based
Staphylococcus aureus [16] = assay: Inhibition of biofilm formation in Staphylococcus aureus ATCC 25923 assessed as inhibition of biofilm formation at 1 times MIC incubated for 24 hrs by crystal violet staining based analysis; type: functional, organism-based
Staphylococcus aureus [17] = assay: Inhibition of biofilm formation in Staphylococcus aureus ATCC 25923 assessed as inhibition of biofilm formation at 2 times MIC incubated for 24 hrs by crystal violet staining based analysis; type: functional, organism-based
Escherichia coli [18] = assay: Antibiofilm activity against Escherichia coli ATCC 25922 assessed as biofilm eradication at 1 times MIC incubated for 24 hrs; type: functional, organism-based
Escherichia coli [19] = assay: Antibiofilm activity against Escherichia coli ATCC 25922 assessed as biofilm eradication at 2 times MIC incubated for 24 hrs; type: functional, organism-based
Escherichia coli [20] = assay: Antibiofilm activity against Escherichia coli ATCC 25922 assessed as biofilm eradication at 4 times MIC incubated for 24 hrs; type: functional, organism-based
Staphylococcus aureus [21] = assay: Antibiofilm activity against Staphylococcus aureus ATCC 25923 assessed as biofilm eradication at 2 times MIC incubated for 24 hrs; type: functional, organism-based
Staphylococcus aureus [22] = assay: Antibiofilm activity against Staphylococcus aureus ATCC 25923 assessed as biofilm eradication at 4 times MIC incubated for 24 hrs; type: functional, organism-based
Staphylococcus aureus [23] = assay: Antibiofilm activity against Staphylococcus aureus ATCC 25923 assessed as biofilm eradication at 8 times MIC incubated for 24 hrs; type: functional, organism-based
Escherichia coli [24] = assay: Induction of drug resistance against Escherichia coli ATCC 25922 assessed as fold increase in MIC measured upto 15 passages by sequential passaging method; type: functional
Escherichia coli [25] = assay: Bactericidal activity against Escherichia coli ATCC 25922 assessed as inhibition of bacterial growth at 0.5 to 2 times MIC by time-kill assay; type: functional, organism-based; conditions: time <= 360.0 min, TDE = time-dependent effect
Staphylococcus aureus [26] = assay: Bactericidal activity against Staphylococcus aureus ATCC 25923 assessed as inhibition of bacterial growth incubated upto 360 mins by time-kill assay; type: functional, organism-based
Escherichia coli [27] = assay: Bactericidal activity against Escherichia coli ATCC 25922 assessed as inhibition of bacterial growth at 1/2 times MIC measured at 180 mins by time-kill assay; type: functional, organism-based
Staphylococcus aureus [28] = assay: Bactericidal activity against Staphylococcus aureus ATCC 25923 assessed as inhibition of bacterial growth at 1/2 times MIC measured upto 360 mins by time-kill assay; type: functional, organism-based
Staphylococcus aureus [29] = assay: Bactericidal activity against Staphylococcus aureus ATCC 25923 assessed as inhibition of bacterial growth at 1 times MIC measured upto 360 mins by time-kill assay; type: functional, organism-based
Escherichia coli [30] = assay: Antimicrobial activity against Escherichia coli ATCC 25922 assessed as reduction in microbial growth measured for 18 hrs in presence of 512 microg/ml LPS; type: functional, organism-based
Cell membrane [31] = assay: Induction of outer membrane permeabilization in Escherichia coli ATCC 25922 assessed as increase in fluorescence intensity at 1 to 4 times MIC measured for 12 hrs by NPN uptake assay; type: subcellular
Cell membrane [32] = assay: Induction of outer membrane permeabilization in Escherichia coli ATCC 25922 assessed as increase in fluorescence intensity at 1 times MIC measured for 12 hrs by NPN uptake assay; type: subcellular
Cell membrane [33] = assay: Induction of outer membrane permeabilization in Escherichia coli ATCC 25922 assessed as increase in fluorescence intensity at 2 times MIC measured for 12 hrs by NPN uptake assay; type: subcellular
Cell membrane [34] = assay: Induction of inner membrane permeabilization in Escherichia coli ML-35 ATCC 43837 assessed as increase in fluorescence intensity at 1 to 4 times MIC incubated upto 150 mins by ONPG staining based analysis; type: subcellular
Cell membrane [35] = assay: Induction of cell membrane damage in Escherichia coli ATCC 25922 at 2 times MIC after 0.5 to 2 hrs by propidium iodide staining based flow cytometer assay; type: subcellular; conditions: time 0.5-2 hrs
Cell membrane [36] = assay: Induction of cell membrane damage in Staphylococcus aureus ATCC 25923 at 2 times MIC after 0.5 to 2 hrs by propidium iodide staining based flow cytometer assay; type: subcellular; conditions: time 0.5-2 hrs
Escherichia coli [37] = assay: Induction of membrane morphological changes in Escherichia coli ATCC 25922 at 4 times MIC measured at 0.5 to 2 hrs by SEM analysis; type: functional, organism-based; conditions: time 0.5-2 hrs
Staphylococcus aureus [38] = assay: Induction of membrane morphological changes in Staphylococcus aureus ATCC 25923 assessed as appearance of adherent bacterial cells at 4 times MIC measured at 0.5 to 2 hrs by SEM analysis; type: functional, organism-based; conditions: time 0.5-2 hrs

CCCCCCC(=O)N[C@@H](CCN)C(=O)N[C@H](C(=O)N[C@@H](CCN)C(=O)N[C@H](Cc1ccccc1)C(=O)N[C@@H](CC(C)C)C(=O)N[C@@H](CCN)C(=O)N[C@@H](C(=O)N[C@@H](CC(C)C)C(=O)N[C@@H](Cc1ccc(O)cc1)C(N)=O)C(C)C)[C@@H](C)CC
MIC (Klebsiella pneumoniae): 8 µg/mL (≈ 6.79 µM)
MIC (Pseudomonas aeruginosa): 4 µg/mL (≈ 3.39 µM)
MIC (Staphylococcus aureus [1]): 8 µg/mL (≈ 6.79 µM)
MIC (Enterococcus faecalis): 64 µg/mL (≈ 54.3 µM)
fold change (FC) (Escherichia coli [2]): <=2
fold change (FC) (Escherichia coli [3]): <=2
fold change (FC) (Escherichia coli [4]): <=2
fold change (FC) (Escherichia coli [5]): <=2
fold change (FC) (Staphylococcus aureus [6]): <=2
fold change (FC) (Staphylococcus aureus [7]): <=2
fold change (FC) (Staphylococcus aureus [8]): <=2
Activity (Escherichia coli [9]): Active
Activity (Staphylococcus aureus [10]): Active
Activity (Escherichia coli [11]): Active
inhibition (Escherichia coli [12]): Active
inhibition (Escherichia coli [13]): Active
inhibition (Escherichia coli [14]): Active
inhibition (Staphylococcus aureus [15]): Active
inhibition (Staphylococcus aureus [16]): inactive
inhibition (Staphylococcus aureus [17]): Active
Activity (Escherichia coli [18]): inactive
Activity (Escherichia coli [19]): Active
Activity (Escherichia coli [20]): Active
Activity (Staphylococcus aureus [21]): Active
Activity (Staphylococcus aureus [22]): Active
Activity (Staphylococcus aureus [23]): Active
fold change (FC) (Escherichia coli [24]): 64
Activity (Escherichia coli [25]): Tde
Activity (Staphylococcus aureus [26]): Dose-Dependent Effect
Activity (Escherichia coli [27]): Active
Activity (Staphylococcus aureus [28]): inactive
Activity (Staphylococcus aureus [29]): inactive
Activity (Escherichia coli [30]): inactive
Activity (Cell membrane [31]): Active
Activity (Cell membrane [32]): Active
Activity (Cell membrane [33]): Active
Activity (Cell membrane [34]): Active
Activity (Cell membrane [35]): Active
Activity (Cell membrane [36]): Active
Activity (Escherichia coli [37]): Active
Activity (Staphylococcus aureus [38]): Active

CCCCCCCC(=O)N[C@@H](CCN)C(=O)N[C@H](C(=O)N[C@@H](CCN)C(=O)N[C@H](Cc1ccccc1)C(=O)N[C@@H](CC(C)C)C(=O)N[C@@H](CCN)C(=O)N[C@@H](C(=O)N[C@@H](CC(C)C)C(=O)N[C@@H](Cc1ccc(O)cc1)C(N)=O)C(C)C)[C@@H](C)CC
MIC (Klebsiella pneumoniae): 8 µg/mL (≈ 6.71 µM)
MIC (Pseudomonas aeruginosa): 4 µg/mL (≈ 3.35 µM)
MIC (Staphylococcus aureus [1]): 8 µg/mL (≈ 6.71 µM)
MIC (Enterococcus faecalis): 16 µg/mL (≈ 13.4 µM)
fold change (FC) (Escherichia coli [2]): <=2
fold change (FC) (Escherichia coli [3]): <=2
fold change (FC) (Escherichia coli [4]): <=2
fold change (FC) (Escherichia coli [5]): <=2
fold change (FC) (Staphylococcus aureus [6]): <=2
fold change (FC) (Staphylococcus aureus [7]): <=2
fold change (FC) (Staphylococcus aureus [8]): <=2
Activity (Escherichia coli [9]): Active
Activity (Staphylococcus aureus [10]): Active
Activity (Escherichia coli [11]): Active
inhibition (Escherichia coli [12]): inactive
inhibition (Escherichia coli [13]): inactive
inhibition (Escherichia coli [14]): Active
inhibition (Staphylococcus aureus [15]): Active
inhibition (Staphylococcus aureus [16]): Active
inhibition (Staphylococcus aureus [17]): Active
Activity (Escherichia coli [18]): Active
Activity (Escherichia coli [19]): Active
Activity (Escherichia coli [20]): Active
Activity (Staphylococcus aureus [21]): Active
Activity (Staphylococcus aureus [22]): Active
Activity (Staphylococcus aureus [23]): Active
fold change (FC) (Escherichia coli [24]): 64
Activity (Escherichia coli [25]): Tde
Activity (Staphylococcus aureus [26]): Dose-Dependent Effect
Activity (Escherichia coli [27]): Active
Activity (Staphylococcus aureus [28]): inactive
Activity (Staphylococcus aureus [29]): inactive
Activity (Escherichia coli [30]): inactive
Activity (Cell membrane [31]): Active
Activity (Cell membrane [32]): inactive
Activity (Cell membrane [33]): inactive
Activity (Cell membrane [34]): Active
Activity (Cell membrane [35]): Active
Activity (Cell membrane [36]): Active
Activity (Escherichia coli [37]): Active
Activity (Staphylococcus aureus [38]): Active
